Source: patent publication US20140100156A1 (SANOFI, priority 2012, published 2014)

Experiments:
[1] = test system: female NMRI-mice; test: Gastric emptying and intestinal passage in mice; assay type: in vivo
Procedure: Female NMRI-mice of a body weight between 20 and 30 g were used. Mice were adapted to housing conditions for at least one week.
Mice were overnight fasted, while water remained available all the time. On the study day, mice were weighed, single-caged and allowed access to 500 mg of feed for 30 min, while water was removed. At the end of the 30 min feeding period, remaining feed was removed and weighed. 60 min later, a coloured, non-caloric bolus was instilled via gavage into the stomach. The test compound/reference compound or its vehicle in the control group was administered subcutaneously, to reach Cmax when coloured bolus was administered. After another 30 min, the animals were sacrificed and the stomach and the small intestine prepared. The filled stomach was weighed, emptied, carefully cleaned and dried and reweighed. The calculated stomach content indicated the degree of gastric emptying. The small intestine was straightened without force and measured in length. Then the distance from the gastric beginning of the gut to the tip of the farthest travelled intestinal content bolus was measured. The intestinal passage was given as relation in percent of the latter distance and the total length of the small intestine.
Statistical analyses were performed with Everstat 6.0 by 1-way-ANOVA, followed by Dunnetts or Newman-Keuls as post-hoc test, respectively. Differences were considered statistically significant at the p<0.05 level. As post hoc test Dunnet's Test was applied to compare versus vehicle control, only. Newman-Keul's Test was applied for all pairwise comparisons (i.e. versus vehicle and reference groups).
30 min later, the assessment of stomach contents and intestinal passage was done (FIG. 1a, b).
In another study, female NMRI-mice, weighing on average 25-30 g, were administered subcutaneously 0.02 and 0.002 mg/kg of SEQ ID NO: 97 or phosphate buffered saline (vehicle control), 30 min prior to the administration of the coloured bolus. 30 min later, the assessment of stomach contents and intestinal passage was done (FIG. 1c, d).

[2] = test system: female NMRI-mice; test: Automated assessment of feed intake in mice; assay type: in vivo; settings: 22 hours
Procedure: Female NMRI-mice of a body weight between 20 and 30 g were used. Mice were adapted to housing conditions for at least one week and for at least one day single-caged in the assessment equipment, when basal data were recorded simultaneously. On the study day, test product was administered subcutaneously close to the lights-off phase (12 h lights off) and assessment of feed consumption was directly started afterwards. Assessment included continued monitoring (every 30 min) over 22 hours. Repetition of this procedure over several days was possible. Restriction of assessment to 22 hours was for practical reasons to allow for reweighing of animals, refilling of feed and water and drug administration between procedures. Results could be assessed as cumulated data over 22 hours or differentiated to 30 min intervals.
Statistical analyses were performed with Everstat 6.0 by two-way ANOVA on repeated measures and Dunnetts post-hoc analyses. Differences were considered statistically significant at the p<0.05 level.
Fed female NMRI-mice, weighing on average 25-30 g, were administered 0.01 or 0.1 mg/kg of SEQ ID NO: 97 or phosphate buffered saline (vehicle control) subcutaneously, directly prior to start of feeding monitoring (time=0 h). Lights-off phase (dark phase) started 4 hours later.

[3] = 0.002 mg/kg s.c., versus PBS-control (second study)
[4] = 0.02 mg/kg s.c., study with reference compound Liraglutide, versus vehicle
[5] = 0.02 mg/kg s.c., versus PBS-control (second study)

SEQ ID NO: 97: exendin-4 derivative, K(γE-x53) in position 14 (HXQGTFTSDLSKQKDSRRAQDFIEWLKNGGPSSGAPPPS; K14 side chain γE-x53; Exendin-4-analogue)
gastric content increased by [1, 3]: 47% | intestinal passage reduced by [1, 3]: 63% | gastric content increased by [1, 4]: 90% | intestinal passage reduced by [1, 4]: 67% | gastric content increased by [1, 5]: 37% | intestinal passage reduced by [1, 5]: 43% | reduction of feed intake at the end of the study ([2]; 0.01 mg/kg s.c.): 23% | reduction of feed intake at the end of the study ([2]; 0.1 mg/kg s.c.): 66%
